The subject of series [1] is Candida albicans ATCC 10231. The following applies: Table 1; strain A; control azoles FLC, ITC, POS, VOR; previously reported (refs 5, 16); cited from earlier work.
Series [2] concerns Aspergillus flavus ATCC MYA-3631. The following applies: Table 1; strain K; control azoles; previously reported (refs 5, 16); cited from earlier work.
The test system of series [3] is C. albicans ATCC 64124. The following applies: Table 1; strain B; control azoles; previously reported (refs 5, 16); cited from earlier work.
The subject of series [4] is C. albicans ATCC MYA-1003(R). The following applies: Table 1; strain G; control azoles; previously reported (refs 5, 16); cited from earlier work.
Series [5] deals with Aspergillus nidulans ATCC 38163. The following applies: Table 1; strain L; control azoles; previously reported (refs 5, 16); cited from earlier work.
In series [6] the test system is C. albicans ATCC MYA-2310(S). The following applies: Table 1; strain E; control azoles; previously reported (refs 5, 16); cited from earlier work.
For series [7], the system named is Candida krusei ATCC 6258. The following applies: Table 1; strain I; control azoles; previously reported (refs 5, 16); cited from earlier work.
For series [8], the system named is C. albicans ATCC MYA-1237(R). The following applies: Table 1; strain F; control azoles; previously reported (refs 5, 16); cited from earlier work.
In series [9] the test system is C. albicans ATCC MYA-2876(S). The following applies: Table 1; strain C; control azoles; previously reported (refs 5, 16); cited from earlier work.
Series [10] relates to Candida glabrata ATCC 2001. The following applies: Table 1; strain H; control azoles; previously reported (refs 5, 16); cited from earlier work.
For series [11], the system named is C. albicans ATCC 90819(R). The following applies: Table 1; strain D; control azoles; previously reported (refs 5, 16); cited from earlier work.
In series [12] the test system is Aspergillus terreus ATCC MYA-3633. The following applies: Table 1; strain M; control azoles; previously reported (refs 5, 16); cited from earlier work.
Series [13] has as its system Candida parapsilosis ATCC 22019. The following applies: Table 1; strain J; control azoles; previously reported (refs 5, 16); cited from earlier work.
Series [14] relates to C. albicans ATCC MYA-2876(S). Nature of the series: MIC determination, strain C. The following applies: Candida albicans. Type of series: cell-based, Candida albicans. Here is the method: (§1) The antifungal activity of our new azole compounds 1-9 and 24-41 was first evaluated against a panel of seven Candida albicans strains (A-G), three non-albicans Candida strains […], and three Aspergillus strains (K-M) in a concentration range of 0.03-31.2 μg/mL (Table 1). […] For all of our azole derivatives we report their MIC-0 values against C. albicans ATCC 10231 (strain A) and all Aspergillus strains (K-M), which correspond to complete growth inhibition of these fungi. […] The commercially available antifungals AmB, FLC, ITC, POS, and VOR were used as reference drugs for comparison. The MIC values presented for these five control drugs were either tested herein or correspond to our previously published data^5, 16 as indicated in Table 1.
(§2) Antifungal activity in the absence or presence of serum. The antifungal activity of the newly prepared alkylated piperazine/morpholine-azole hybrids 16-28, of intermediate 14 that we used to verify that only final compounds exert antifungal activity, as well as that of alkylated piperazine/morpholine derivatives 1-10 were first evaluated against a panel of seven C. albicans (ATCC 10231 (A), ATCC 64124(R) (B), ATCC MYA-2876(S) (C), ATCC 90819(R) (D), ATCC MYA-2310(S) (E), ATCC MYA-1237(R) (F), and ATCC MYA-1003(R) (G)), three non-albicans Candida (C. glabrata ATCC 2001 (H), C. krusei ATCC 6258 (I), and C. parapsilosis ATCC 22019 (J)), and three Aspergillus (A. flavus ATCC MYA-3631 (K), A. nidulans ATCC 38163 (L), and A. terreus ATCC MYA-3633 (M)) strains using a concentration range of 0.03-31.3 μg/mL (Table 2).
(§3) Commercially available antifungal agents such as AmB, CAS, FLC, and VOR were used as positive controls for comparison. […] It is important to note that all comparisons to follow will be done by using the MIC values reported in μg/mL as the data were collected that way. However, we also present in parentheses in Table 2 the corresponding values in micromolar.
(§4) We used the commercially available antifungal agents such as AmB, caspofungin (CAS), FLC, and VOR as positive controls for comparison. For derivatives 5-16 as well as the reference drugs AmB and CAS, we reported MIC-0 values, which correspond to no visible growth. […] In this manuscript, we performed all activity comparisons by using the MIC values reported in μg/mL (Note: the corresponding MIC values are also provided in μM into parentheses in Tables 1, 2, S1, and S2).

The test system of series [15] is Candida krusei ATCC 6258. The series can be described thus: MIC determination, strain I. Type of series: cell-based. The following applies: Pichia kudriavzevii, ATCC6258. Here is the method: as §1, §2, §3, §4
Series [16] has as its system Candida parapsilosis ATCC 22019. The series can be described thus: MIC determination, strain J. Type of series: cell-based. The following applies: Lodderomyces parapsilosis, ATCC22019. Here is the method: as §1, §2, §3, §4
Series [17] deals with C. albicans ATCC MYA-2310(S). The series can be described thus: MIC determination, strain E. Type of series: cell-based, Candida albicans. The following applies: Candida albicans. Here is the method: as §1, §2, §3, §4
For series [18] the following is noted: bulk form; cited from earlier work.
For series [19], the system named is ergosterol biosynthetic pathway (sterol 14α-demethylase) in C. albicans ATCC 10231 (strain A). The series can be described thus: Sterol composition by GC-MS, strain A. The format is cell-based, Candida albicans. An excerpt: (§5) FIG. 7A-FIG. 7H includes FIG. 7A. A simplified ergosterol biosynthetic pathway and products resulting from inhibition of ERG11. FIG. 7B-G. include GC-MS chromatograms of the sterols extracted from untreated and antifungals treated C. albicans strains. […] The peaks are for lanosterol (1), ergosterol (2), eburicol (3), 14-alpha-methyl ergosta 8,24(28)-dien-3-beta,6-alpha-diol (4), and unknown sterols (5 and 6). FIG. 7H is a table summarizing the percentage of each sterol from panels B-G.
FIG. 13A. A simplified ergosterol biosynthetic pathway and products resulting from inhibition of ERG11. FIG. 13B-FIG. 13F. GC-MS chromatograms of the sterols extracted from untreated and antifungal-treated C. albicans ATCC 10231 (strain A). […] The peaks in these chromatograms are for lanosterol (1), ergosterol (2), eburicol (3), 14α-methyl ergosta-8,24(28)-dien-3β,6α-diol (4), and three unknown sterols (5-7). FIG. 13G includes a table summarizing the percentage of each sterol from panels B-F.
(§6) No drug controls were also performed (FIGS. 7D and G).
Determination of sterol composition in c. albicans in the presence and absence of drugs. […] By using gas chromatography-mass spectrometry (GC-MS), we investigated the potential of the synthetic compounds to exert their antifungal activity by inhibiting the sterol 14α-demethylase enzyme of the ergosterol biosynthetic pathway (FIG. 13). […] A no drug control was also performed (FIG. 13A).
Since out of our compounds displaying antifungal activity only compound 8 caused membrane disruption of C. albicans ATCC 10231 (strain A) in the membrane permeabilization assay (section 2.6), we decided to explore by using gas chromatography-mass spectrometry (GC-MS) the effect of compounds 8 and 9 on sterol composition during ergosterol biosynthesis (the mechanism of action of other conventional azoles). […] We also used VOR at 0.12 μg/mL and no drug control for comparison.

For series [20], the system named is C. albicans ATCC 64124. The series can be described thus: MIC determination, strain B. Type of series: cell-based, Candida albicans. The following applies: Candida albicans, ATCC64124. Here is the method:
as §1, §2, §3, §4

Series [21] deals with ergosterol biosynthetic pathway (sterol 14α-demethylase) in C. albicans ATCC 64124 (strain B). The series can be described thus: Sterol composition by GC-MS, strain B. The format is cell-based, Candida albicans. The following applies: Ex.1 series, 1.95 μg/mL.
Excerpt: as §5, §6

Series [22] deals with Candida glabrata ATCC 2001. Nature of the series: MIC determination, strain H. The format is cell-based. The following applies: Nakaseomyces glabratus, ATCC2001. Here is the method:
as §1, §2, §3, §4

In series [23] the test system is C. albicans ATCC 90819(R). The series can be described thus: MIC determination, strain D. Type of series: cell-based, Candida albicans. The following applies: Candida albicans, ATCC90819. Here is the method: as §1, §2, §3, §4
Where [24] appears, read: read-out: MIC (MIC-2), in parentheses.

Like-named read-outs stand apart in the source and are kept apart here. Marks after values point to notes of the source that are not given here. Where only a bound is given, the exact number is not on record here.

For the compound `CCC(C)n1ncn(-c2ccc(N3CCN(c4ccc(OCC5COC(Cn6cncn6)(c6ccc(Cl)cc6Cl)O5)cc4)CC3)cc2)c1=O` (stereo not drawn) [ITC, itraconazole], the “MIC (MIC-2)” value in [1] is given as 0.5^b μg/mL; in [2], 0.48^c μg/mL; in series [3], >62.5^b μg/mL; in series [4], 31.2^b μg/mL; in series [5] it was 0.195^b μg/mL; in series [6], 31.2^b μg/mL. Moreover, the “MIC (MIC-2)” value in series [7] is given as 0.48^c μg/mL; in [8], 31.2^b μg/mL; in [9] it was 7.8^b μg/mL; in [10], 7.8^c μg/mL; in [11] it was 31.2^b μg/mL; in series [12], 0.975^c μg/mL. Further, the “MIC (MIC-2)” value in series [13] was 0.12^c μg/mL.
With `CC[C@@H]([C@H](C)O)n1ncn(-c2ccc(N3CCN(c4ccc(OC[C@@H]5CO[C@@](Cn6cncn6)(c6ccc(F)cc6F)C5)cc4)CC3)cc2)c1=O` [POS, posaconazole], the “MIC (MIC-2)” value in series [1] is given as 0.5^b μg/mL; in series [2], 0.24^c μg/mL; in series [3], >62.5^b μg/mL; in series [4] it was 15.6^b μg/mL; in series [5] it was 0.195^b μg/mL; in [6], 31.2^b μg/mL. Also, the “MIC (MIC-2)” value in series [7] is listed as 0.06^c μg/mL; in series [8], 15.6^b μg/mL; in series [9] it was 7.8^b μg/mL; in series [10] it was 0.12^c μg/mL; in series [12], 0.48^c μg/mL; in [13], <0.03^c μg/mL.
What is called MIC is the least concentration at which growth counts as inhibited. Consider `OC(Cn1cncn1)(Cn1cncn1)c1ccc(F)cc1F` [FLC, fluconazole], for which the MIC is 15.6 µg/mL in series [14] (read-out: MIC (MIC-2)); 50.9 µM in series [14] (setting [24]); more than 31.3 µg/mL in series [15] (read-out: MIC (MIC-2)); more than 102 µM in [15] (setting [24]); 1.95 µg/mL in [16] (read-out: MIC (MIC-2)); 6.4 µM in series [16] (setting [24]). The MIC was more than 125 µg/mL in series [17] (read-out: MIC (MIC-2)); more than 408 µM in [17] (setting [24]); more than 125 µg/mL in [20] (read-out: MIC (MIC-2)); more than 408 µM in [20] (setting [24]); more than 31.3 µg/mL in [22] (read-out: MIC (MIC-2)); more than 102 µM in series [22] (setting [24]). Further, the minimal inhibitory concentration (MIC) in series [23] (read-out: MIC (MIC-2)) is more than 125 µg/mL; in series [23] (setting [24]), more than 408 µM. Further, the “MIC (MIC-2)” value in [6] is on record as >125^b μg/mL; in [7], >31.2^c μg/mL; in series [9], 15.6^b μg/mL; in series [10], >31.2^c μg/mL; in series [13], 1.95^c μg/mL. For the same compound, in [18], the “solubility in organic solvents such as DMSO” value is on record as “highly soluble”. Besides, the solubility in water result in series [18] is recorded as “only slightly soluble”. In addition, the “ergosterol, percentage of sterols” value in [19] (Ex.1 series, 0.125 μg/mL) was approximately 93%; in series [21], approximately 48%. The “ergosterol (2), percentage of sterols” value in [19] (Ex.2 series, FLC 1.95, VOR 0.12, 20 0.48, 26 0.975 μg/mL) was determined as 95.90%. Also, the “eburicol, percentage of sterols” value in series [21] was approximately 12%. Also, the “lanosterol, percentage of sterols” value in series [21] is reported as approximately 30%.

These data come from US12103916B2, “Antifungal compounds” (University of Kentucky Research Foundation, priority 2016, dated 2024).
